The results in this text go back to PMC6325219, “Preclinical Characterization of NVR 3-778, a First-in-Class Capsid Assembly Modulator against Hepatitis B Virus” (Antimicrobial Agents and Chemotherapy, 2018).

Marks after values point to notes of the source that are not given here.

One data set relates to HBV rtA181V variant. As to the kind of experiment: microbe, parasite or virus in culture. The class given is cell-based, hepatitis B virus. As to conditions: ratio of mean EC50 against variant over WT HBV, HepG2 cells. The source says: Plasmids containing HBV DNA with rtN236T, rtA181V, rtA181V/N236T, and rtL180M/M204V/N236T were generated using the GT B WT or rtL180M/M204V DNA-containing plasmids and site-directed mutagenesis (Agilent Technologies). A panel of nine different HBV core variants (cW102G, cW102R, cI105V, cI105L, cI105T, cT109S, cT109M, cT109I, and cY118F) was generated, also using the GT B WT DNA-containing plasmid and site-directed mutagenesis. The full-length genome from all plasmids was sequenced to confirm that only the intended nucleotide change(s) was present. Finally, HBV sequences from genotypes A (GenBank accession number AF305422), C (GenBank accession number AB033550), D (GenBank accession number V01460), E (GenBank accession number AB274971), F (GenBank accession number AB036912), G (GenBank accession number AF160501), and H (GenBank accession number AB375159) were gene synthesized as 1.1 times the genome length together with part of the CMV promoter at the 5′ end. The gene-synthesized piece was validated by sequencing and subcloned into the pCMV-HBV plasmid using the restriction sites SalI and NdeI (Genewiz, USA).
HepG2 cells were seeded in 96-well plates at a density of 20,000 cells/well and allowed to attach overnight at 37°C in 5% CO2. Cells were cotransfected with the HBV plasmids (100 ng/well) and a Gaussia expression plasmid (10 ng/well) (Thermo Scientific) using the Lipofectamine LTX Plus transfection reagent (Life Technologies). Transfection mixtures were removed after overnight incubation, and cells were treated with serially diluted NVR 3-778 at a final dimethyl sulfoxide (DMSO) concentration of 0.5%. After 3 days of incubation with the compound, the supernatants were collected and secreted Gaussia luciferase was measured using a Gaussia Flash luciferase assay kit (Thermo Scientific). Cells were lysed with 0.33% NP-40 (Thermo Scientific), and the cytoplasmic fractions were treated with 2 units of Turbo DNase (Invitrogen) and 10 units of S7 nuclease (Roche) in CutSmart buffer (New England Biolabs) containing 25 µM CaCl2 (G-Biosciences) at 37°C for 60 min, followed by inactivation of the enzymes at 75°C for 15 min. Samples were diluted into lysis buffer (Affymetrix) containing 2.5 µg proteinase K (Affymetrix) at 50°C for 40 min. Intracellular encapsidated HBV DNA was denatured for 30 min at 25°C in 0.2 M NaOH (Sigma) and incubated with HBV DNA probes designed to hybridize to the minus-strand HBV DNA (Affymetrix). The denatured DNA was subsequently detected using a QuantiGene assay kit, according to the branched DNA (bDNA) assay recommended by the manufacturer (Affymetrix).
To determine percent inhibition, the mean background signal from wells containing only culture medium was subtracted from the signal for all other samples, and percent inhibition at each compound concentration was calculated by normalization to the signals for HepG2.2.15 cells treated with 0.5% DMSO. […] Both CalcuSyn and MacSynergy II (Ann Arbor, MI) software were used to evaluate the effect of compound combinations ([27]). After data analysis at the 95% confidence level, values of synergy or antagonism of <25 µM^2% were defined as insignificant, those between 25 and 50 µM^2% were defined as minor, those between 50 and 100 µM^2% were defined as moderate, and those of >100 µM^2% were defined as strong.

The test system of another data set is plasma proteins. The experiment in a line: Plasma protein binding by equilibrium dialysis, human. It is filed as in vitro ADME. The note with it: 2 µM. From the text: The binding of NVR 3-778 to the plasma proteins of mouse, rat, dog, monkey, and human was investigated by equilibrium dialysis.
For orientation: Equilibrium dialysis compares concentrations on both sides of a semipermeable membrane.

Consider `O=C(Nc1cc(F)c(F)c(F)c1)c1ccc(F)c(S(=O)(=O)N2CCC(O)CC2)c1` [NVR 3-778], for which the “EC50 fold change, rtA181V” value in the data set with HBV rtA181V variant is listed as 0.82 ± 0.19^d fold. Also, the “Mean percent binding to plasma proteins” value in the data set with plasma proteins is given as “approximately 98%”.
